Test results as given in EPA's ToxRefDB 2.

What was measured:
rat [1] = conditions: Subchronic oral toxicity in rodents, other, Feed, dose end: 10 week, group: systemic, systemic / in life observation / body weight / body weight gain
rat [2] = conditions: Sub-acute repeat dose toxicity; fischer; Oral; Gavage/Intubation; dose end: 14 day; group: systemic; systemic / hematology / leukocyte (wbc) count differential / leukocyte (wbc) + systemic / hematology / nucleated red blood cell (nrbc) / …
rat [3] = conditions: Carcinogenicity, other, Oral, Feed, dose end: 102 week, group: systemic
rat [4] = conditions: Subchronic oral toxicity in rodents, fischer, Gavage/Intubation, dose end: 13 week
mouse = conditions: Carcinogenicity; cd1; Oral; [Not Specified]; group: systemic; systemic / in life observation / body weight / body weight gain
dog [5] = conditions: Chronic toxicity, beagle, Oral, Feed, dose end: 52 week, group: systemic
rat [6] = conditions: Subchronic oral toxicity in rodents, wistar, Feed, dose end: 90 day, group: systemic, systemic / in life observation / body weight / body weight + systemic / in life observation / body weight / body weight gain + systemic / in…
rabbit = conditions: Prenatal developmental toxicity study, new zealand white, Oral, Gavage/Intubation, dose end: 19 GD
dog [7] = conditions: Subchronic oral toxicity in nonrodent, beagle, Feed, dose end: 13 week, group: systemic
rat [8] = conditions: Combined chronic toxicity/carcinogenicity; wistar; Oral; Feed; dose end: 104 week; group: systemic; systemic / in life observation / body weight / body weight + systemic / in life observation / body weight / body weight gain
rat [9] = conditions: Prenatal developmental toxicity study, sprague dawley, Oral, Gavage/Intubation, dose end: 15 GD
rat [10] = conditions: Multigenerational reproductive toxicity study, wistar, Oral, Feed, dose end: 2 generation
[11] = systemic / pathology microscopic / nose / inflammation
[12] = group: cholinesterase, cholinesterase / cholinesterase / cholinesterase / cholinesterase (che)
[13] = group: systemic, systemic / hematology / hematocrit (hct) / hematocrit (hct) + systemic / hematology / hemoglobin (hgb) / hemoglobin (hgb) + systemic / in …
[14] = group: systemic, systemic / hematology / polychromasia / polychromasia
[15] = systemic / in life observation / food consumption / food consumption
[16] = group: developmental, developmental / developmental malformation / bone / supernumerary + developmental / developmental malformation / bone / extra ossification …
[17] = group: maternal, systemic / in life observation / body weight / body weight gain + systemic / in life observation / clinical signs / abnormal feces
[18] = group: maternal, systemic / in life observation / body weight / body weight gain + systemic / in life observation / clinical signs / abnormal feces + …
[19] = systemic / pathology microscopic / bone marrow / hyperplasia + systemic / pathology microscopic / liver / hematopoietic cell proliferation
[20] = systemic / pathology microscopic / bone marrow / hyperplasia + systemic / pathology microscopic / liver / hematopoietic cell proliferation…
[21] = group: developmental, developmental / developmental malformation / bone / incomplete ossification + systemic / in life observation / body weight / fetal weight
[22] = group: maternal, systemic / in life observation / body weight / body weight gain + systemic / in life observation / food consumption / food consumption
[23] = group: offspring, developmental / developmental malformation / general / runts + systemic / in life observation / body weight / offspring (pup) weight + …
[24] = group: offspring, developmental / developmental malformation / general / runts + systemic / organ weight / thymus / absolute + systemic / organ weight / …
[25] = group: reproductive, reproductive / offspring survival early / birth index / live birth index

With `Cc1cccc(C)c1N` [2,6-Dimethylaniline] the LEL (rat [1]) was 150 mg/kg/day, the LOAEL (rat [1]) was 150 mg/kg/day and the NEL (rat [1]) was 50 mg/kg/day. It also gave an NOAEL (rat [1]) of 50 mg/kg/day, an LEL (rat [2]) of 310 mg/kg/day and an LOAEL (rat [2]) of 310 mg/kg/day. For the same compound, the NEL (rat [2]) was 160 mg/kg/day, the NOAEL (rat [2]) was 160 mg/kg/day and the LOAEL (rat [3]; systemic / in life observation / body weight / body weight gain) was 50 mg/kg/day. It also gave an NOAEL (rat [3]; systemic / in life observation / body weight / body weight gain + systemic / pathology microscopic / adrenal gland / adenoma + systemic / …) of 15 mg/kg/day, an LEL (rat [3]; [11]) of 15 mg/kg/day and an NEL (rat [3]; [11]) of less than 15 mg/kg/day. For the same compound, the LEL (rat [4]; [12]) was 160 mg/kg/day, the LOAEL (rat [4]; [12]) was greater than 310 mg/kg/day and the NEL (rat [4]; [12]) was 80 mg/kg/day. For the same compound, the NOAEL (rat [4]; [12]) was no less than 310 mg/kg/day, the LOAEL (rat [4]; [13]) was 310 mg/kg/day and the NOAEL (rat [4]; [13]) was 160 mg/kg/day. It also gave an LEL (rat [4]; [14]) of 20 mg/kg/day and an NEL (rat [4]; [14]) of less than 20 mg/kg/day.
Work on `C/C(=N\NC(=O)Nc1cc(F)cc(F)c1)c1ncccc1C(=O)O` [Diflufenzopyr] yielded an LEL (mouse) of 1000 mg/kg/day, an LOAEL (mouse) greater than 1000 mg/kg/day and an NEL (mouse) of 500 mg/kg/day. It also gave an NOAEL (mouse) of no less than 1000 mg/kg/day, an LOAEL (dog [5]; systemic / hematology / reticulocyte / reticulocyte + systemic / pathology microscopic / bone marrow / hyperplasia) of 299 mg/kg/day and an NOAEL (dog [5]; systemic / hematology / reticulocyte / reticulocyte + systemic / pathology microscopic / bone marrow / hyperplasia + systemic / hematology…) of 26 mg/kg/day. For the same compound, the LEL (dog [5]; [15]) was 26 mg/kg/day, the NEL (dog [5]; [15]) was less than 26 mg/kg/day and the LEL (rat [6]) was 725 mg/kg/day. It also gave an LOAEL (rat [6]) of 725 mg/kg/day, an NEL (rat [6]) of 352 mg/kg/day and an NOAEL (rat [6]) of 352 mg/kg/day. It also gave an LOAEL (rabbit; group: developmental, developmental / developmental malformation / bone / supernumerary) of 300 mg/kg/day, an LEL (rabbit; [16]) of 300 mg/kg/day and an NEL (rabbit; [16]) of 100 mg/kg/day. The NOAEL (rabbit; [16]) was 100 mg/kg/day, the LEL (rabbit; [17]) was 100 mg/kg/day and the LOAEL (rabbit; [17]) was 100 mg/kg/day. The NEL (rabbit; [18]) was 30 mg/kg/day, the NOAEL (rabbit; [18]) was 30 mg/kg/day and the LEL (dog [7]; [19]) was 403 mg/kg/day. The LOAEL (dog [7]; [19]) was 403 mg/kg/day, the NEL (dog [7]; [20]) was 58 mg/kg/day and the NOAEL (dog [7]; [20]) was 58 mg/kg/day. For the same compound, the LEL (rat [8]) was 69 mg/kg/day, the LOAEL (rat [8]) was greater than 518 mg/kg/day and the NEL (rat [8]) was 22 mg/kg/day. It also gave an NOAEL (rat [8]) of no less than 518 mg/kg/day, an LEL (rat [9]; [21]) of 1000 mg/kg/day and an LOAEL (rat [9]; [21]) of 1000 mg/kg/day. For the same compound, the NEL (rat [9]; [21]) was 300 mg/kg/day, the NOAEL (rat [9]; [21]) was 300 mg/kg/day and the LEL (rat [9]; [22]) was 1000 mg/kg/day. For the same compound, the LOAEL (rat [9]; [22]) was 1000 mg/kg/day, the NEL (rat [9]; [22]) was 300 mg/kg/day and the NOAEL (rat [9]; [22]) was 300 mg/kg/day. The LEL (rat [10]; [23]) was 552 mg/kg/day, the LOAEL (rat [10]; [23]) was 552 mg/kg/day and the NEL (rat [10]; [24]) was 126 mg/kg/day. For the same compound, the NOAEL (rat [10]; [24]) was 126 mg/kg/day, the LEL (rat [10]; [25]) was 552 mg/kg/day and the LOAEL (rat [10]; [25]) was 552 mg/kg/day. It also gave an NEL (rat [10]; [25]) of 126 mg/kg/day and an NOAEL (rat [10]; [25]) of 126 mg/kg/day.
